Laboratory results as given in patent US10034886B2, “GLP-1 receptor modulators” (Celgene International II SÀRL, priority 2014, dated 2018).

molecular target: T1, GLP-1R (Homo sapiens, UniProt P43220); assay: EC20 GLP-1(9-36) PAM cAMP assay: dose response of compound in the presence of fixed concentration of GLP-1(9-36); type: cell-based; details: GLP-1R CRE-bla CHO-K1 cells, compound dose response with fixed concentration of GLP-1(9-36), read-out: EC20 GLP-1(9-36) PAM EC50
T1 construct: host or cells: GLP-1R CRE-bla CHO-K1 cells
T1 sequence (P43220 24-463): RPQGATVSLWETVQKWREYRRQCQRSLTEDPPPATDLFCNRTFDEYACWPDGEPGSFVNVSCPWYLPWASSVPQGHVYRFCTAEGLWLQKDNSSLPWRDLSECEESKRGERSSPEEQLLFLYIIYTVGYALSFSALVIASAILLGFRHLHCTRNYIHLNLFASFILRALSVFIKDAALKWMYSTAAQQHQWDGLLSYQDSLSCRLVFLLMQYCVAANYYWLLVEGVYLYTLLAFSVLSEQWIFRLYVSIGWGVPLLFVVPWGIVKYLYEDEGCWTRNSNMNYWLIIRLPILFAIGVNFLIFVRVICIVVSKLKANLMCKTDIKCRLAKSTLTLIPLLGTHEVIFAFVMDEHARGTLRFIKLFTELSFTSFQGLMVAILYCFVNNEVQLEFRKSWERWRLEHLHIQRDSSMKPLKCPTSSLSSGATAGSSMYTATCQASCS
T1 sequence (P01275 100-127 partner limits assumed): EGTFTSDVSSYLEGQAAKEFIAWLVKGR
In short: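 Positive allosteric modulation read as cAMP accumulation: compound titrations (12 points) combined with an EC20 level of GLP-1(9-36) on CHO-K1 GLP-1R CRE-bla cells, IBMX present, 30 min, 37 °C, pH 7.4 buffer. Luminescence converted to cAMP via standards; non-linear fit gave EC50 and Emax.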

| Structure (SMILES) | EC50 [nM] |
| --- | --- |
| CCC[C@H]1CC[C@H](C2CCN(c3cnc(-c4ccc(C[C@H](NC(=O)c5ccc(C(C)C)s5)C(=O)N5CC(C(=O)O)C5)cc4)nc3)CC2)CC1 [Compound 1534] | < 800 |
| CCC[C@H]1CC[C@H](C2CCN(c3cnc(-c4ccc(C[C@H](NC(=O)c5ccc(OC(C)C)cc5)C(=O)N5CC(C(=O)O)C5)cc4)nc3)CC2)CC1 [Compound 1535] | 800 to 2500 |
| CCC[C@H]1CC[C@H](C2CCN(c3cnc(-c4ccc(C[C@H](NC(=O)c5ccc(C(C)C)cc5)C(=O)N5CC(C(=O)O)C5)cc4)nc3)CC2)CC1 [Compound 1536] | < 800 |
| CCC[C@H]1CC[C@H](C2CCN(c3cnc(-c4ccc(C[C@H](NC(=O)c5cnc(C(C)(C)C)s5)C(=O)N5CC(C(=O)O)C5)cc4)nc3)CC2)CC1 [Compound 1537] | < 800 |
| CCC[C@H]1CC[C@H](C2CCN(c3cnc(-c4ccc(C[C@H](NC(=O)c5ccc(C6CC6)cn5)C(=O)N5CC(C(=O)O)C5)cc4)nc3)CC2)CC1 [Compound 1538] | 800 to 2500 |
| CCC[C@H]1CC[C@H](C2CCN(c3cnc(-c4ccc(CC(NC(=O)c5ccc(C(C)(C)C)s5)C(=O)NS(=O)(=O)CC)cc4)nc3)CC2)CC1 (stereo partly shown) [Compound 1539] | 2500 to 5000 |
| CCC[C@H]1CC[C@H](C2CCN(c3cnc(-c4ccc(CC(NC(=O)c5ccc(C(C)(C)C)s5)C(=O)NS(=O)(=O)CCOC)cc4)nc3)CC2)CC1 (stereo partly shown) [Compound 1540] | < 800 |
| CCC[C@H]1CC[C@H](C2CCN(c3cnc(-c4ccc(CC(NC(=O)c5ccc(C(C)(C)C)s5)C(=O)NS(=O)(=O)CCC5CCC5)cc4)nc3)CC2)CC1 (stereo partly shown) [Compound 1541] | 800 to 2500 |
| CCC[C@H]1CC[C@H](C2CCN(c3cnc(-c4ccc(CC(NC(=O)c5ccc(C(C)(C)C)s5)C(=O)NS(=O)(=O)CC5CC5)cc4)nc3)CC2)CC1 (stereo partly shown) [Compound 1542] | < 800 |
| CCC[C@H]1CC[C@H](C2CCN(c3cnc(-c4ccc(CC(NC(=O)c5ccc(C(C)(C)C)s5)C(=O)NS(=O)(=O)CC(=O)OC)cc4)nc3)CC2)CC1 (stereo partly shown) [Compound 1543] | < 800 |
| CCC[C@H]1CC[C@H](C2CCN(c3cnc(-c4ccc(CC(NC(=O)c5ccc(C(C)(C)C)s5)C(=O)NS(=O)(=O)CC(C)(C)C)cc4)nc3)CC2)CC1 (stereo partly shown) [Compound 1544] | < 800 |
| CCC[C@H]1CC[C@H](C2CCN(c3cnc(-c4ccc(CC(NC(=O)c5ccc(C(C)(C)C)s5)C(=O)NS(=O)(=O)C(C)C)cc4)nc3)CC2)CC1 (stereo partly shown) [Compound 1545] | < 800 |
| CCC[C@H]1CC[C@H](C2CCN(c3cnc(-c4ccc(CC(NC(=O)c5ccc(C(C)(C)C)s5)C(=O)NS(=O)(=O)C(C)(C)C)cc4)nc3)CC2)CC1 (stereo partly shown) [Compound 1546] | < 800 |

Further lines, results first:

| EC50 [nM] | Structure (SMILES) |
| --- | --- |
| < 800 | CCC[C@H]1CC[C@H](C2CCN(c3cnc(-c4ccc(CC(NC(=O)c5ccc(C(C)(C)C)s5)C(=O)NS(=O)(=O)CCN(C)C)cc4)nc3)CC2)CC1 (stereo partly shown) [Compound 1547] |
| < 800 | CCC[C@H]1CC[C@H](C2CCN(c3cnc(-c4ccc(CC(NC(=O)c5ccc(C(C)(C)C)s5)C(=O)NS(=O)(=O)CCNC(=O)OC(C)(C)C)cc4)nc3)CC2)CC1 (stereo partly shown) [Compound 1548] |
| < 800 | CCC[C@H]1CC[C@H](C2CCN(c3cnc(-c4ccc(CC(NC(=O)c5ccc(C(C)(C)C)s5)C(=O)NS(=O)(=O)C(F)(F)F)cc4)nc3)CC2)CC1 (stereo partly shown) [Compound 1549] |
| < 800 | CCC[C@H]1CC[C@H](C2CCN(c3cnc(-c4ccc(CC(NC(=O)c5ccc(C(C)(C)C)s5)C(=O)NS(=O)(=O)CC(F)(F)F)cc4)nc3)CC2)CC1 (stereo partly shown) [Compound 1550] |
| 2500 to 5000 | CCCCCCCOc1ccc(-c2nnc(-c3ccc(C[C@H](NC(=O)c4ccc(C(C)(C)C)cc4)C(=O)N4CC(C(=O)O)C4)cc3)s2)cc1 [Compound 1551] |
| 800 to 2500 | CCCCCCCOc1ccc(-c2nnc(-c3ccc(C[C@@H](NC(=O)c4ccc(C(C)(C)C)cc4)C(=O)N4CC(C(=O)O)C4)cc3F)s2)cc1 [Compound 1553] |
